Assay [1] has as its system pERK in MDA-MB-231 cells. Description: Inhibitory activity at pERK (In Cell Western, MDA-MB-231 cells). Type of assay: cell-based. Conditions: Homo sapiens, MDA-MB-231, MDA-MB-231 cells; read-out: MDA-MB-231 pERK IC50. Put shortly: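 pERK was measured by in-cell immunofluorescence (PI nuclear counterstain, Acumen read-out) in fixed MDA-MB-231 cells. Compound exposure lasted 2 h in DMEM with 0.1% BSA, using eight 3-fold dilutions starting at 30 μM final and 0.3% DMSO. IC50 values were derived from the resulting curves.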

Assay [2] concerns PLC-PRF-5 cells. Put plainly: Inhibition of proliferation of PLC-PRF-5 cells (ATPlite). The assay is classed as cell-based. Conditions: Homo sapiens, PLC-PRF-5, PLC-PRF-5 cells; read-out: PLC-PRF-5 cell proliferation IC50. Put shortly: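 Antiproliferative IC50 from luminescent ATP detection (ATPlite) after 96 h compound exposure at 37 °C. Cells grown in DMEM plus 10% FBS and allowed 2 h to settle, then dosed with eight 3-fold dilutions topping at 30 μM final, DMSO 0.3%.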

Assay [3] has as its target KDR kinase (790-1356 AA) (Homo sapiens (Human), UniProt P35968). Put plainly: Inhibitory activity at KDR kinase (Lance Ultra Ulight-TK assay). The assay is classed as biochemical. The gist of the method:
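Kinase (20 nM final) and compound were premixed 20 min at 30 °C, then phosphorylation ran 2 h at 30 °C with ATP at 90 μM and Ulight-TK substrate at 50 μM, pH 7.5, Mg2+ and Mn2+ present.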

For assay [4], the target named is B-Raf kinase (Homo sapiens (Human), UniProt P15056). Description: Inhibitory activity at B-Raf kinase (ADP-GLO assay). The assay is classed as biochemical. How it is done:
Inhibitory Activity of Compounds at B-Raf Kinase
• [Experimental method]: Use ADP-GLO™ assay kit from Promega to evaluate the inhibitory activity of compounds at B-Raf • [Instrument]: PerKinElmer's ENVISION plate reader • [Material]: Optiplate-384 well plate (PerKinElmer), kinase buffer (50 mM Hepes pH7.5, 1 mM EGTA, 2 mM DTT, 10 mM Mg^2+, 0.05% BSA), B-Raf kinase (Millipore, catalogue #14-530-K), GST-MEK1 substrate (Carna, catalogue #07-141-10), Super pure ATP (Promega), ADP-GLO™ assay kit (Promega, catalogue # V9102), DMSO (Sigma, catalogue #34869), purified water (Millipore, type: Milli-Q). • [Study conditions]: Mix B-Raf kinase (final concentration: 5 nM) and compound (DMSO final concentration: 0.25%) and preincubate at 30° C. for 20 min, then add ATP (final concentration: 6 μM) and reaction substrate (final concentration: 30 nM), React for 2 hrs at 30° C. After reaction, add ADP-GLO™ reagent, react for 40 min at room temperature, then add ADP-GLO™ detecting agent, react for 30 min at room temperature. After that, use ENVSION to measure the […]. • [Samples]: Compounds in the examples and Sorafenib (positive control) • [Data analysis]: Use CBIS data analysis software to calculate IC50 values

pIC50: −log10 of the molar value. Some results are limits rather than exact numbers.

Chain of KDR kinase (790-1356 AA) (P35968 790-1356): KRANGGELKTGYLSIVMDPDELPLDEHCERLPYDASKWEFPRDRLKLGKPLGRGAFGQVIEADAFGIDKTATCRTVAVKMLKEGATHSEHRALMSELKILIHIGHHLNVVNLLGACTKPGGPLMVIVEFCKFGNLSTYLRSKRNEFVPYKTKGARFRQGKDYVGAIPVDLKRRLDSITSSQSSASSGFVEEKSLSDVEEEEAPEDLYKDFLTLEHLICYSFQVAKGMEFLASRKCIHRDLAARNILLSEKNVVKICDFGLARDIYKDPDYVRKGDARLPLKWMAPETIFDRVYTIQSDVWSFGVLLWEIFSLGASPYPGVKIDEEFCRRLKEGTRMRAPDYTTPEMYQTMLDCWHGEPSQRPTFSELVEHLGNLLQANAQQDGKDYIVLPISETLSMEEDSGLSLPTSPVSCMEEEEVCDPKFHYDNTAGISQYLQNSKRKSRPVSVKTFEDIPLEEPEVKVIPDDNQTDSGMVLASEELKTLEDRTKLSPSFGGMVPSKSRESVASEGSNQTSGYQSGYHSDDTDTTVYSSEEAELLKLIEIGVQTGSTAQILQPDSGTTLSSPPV
Chain of B-Raf kinase (P15056 416-766): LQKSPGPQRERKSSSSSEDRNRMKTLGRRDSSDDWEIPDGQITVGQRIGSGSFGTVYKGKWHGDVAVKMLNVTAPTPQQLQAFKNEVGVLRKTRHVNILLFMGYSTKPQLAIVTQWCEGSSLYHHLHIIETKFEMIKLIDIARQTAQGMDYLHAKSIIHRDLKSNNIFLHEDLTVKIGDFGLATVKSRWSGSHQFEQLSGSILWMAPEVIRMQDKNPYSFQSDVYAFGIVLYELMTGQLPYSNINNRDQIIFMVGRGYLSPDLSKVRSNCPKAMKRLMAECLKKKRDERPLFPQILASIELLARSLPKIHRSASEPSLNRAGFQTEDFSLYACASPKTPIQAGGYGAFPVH

On to `Cc1cc(Oc2ccnc(NC(=O)C3CC3)c2)ccc1NC(=O)Nc1ccc(F)c(OC(F)(F)F)c1` [Exe. 196], for which the pIC50 in assay [1] was 7.84; in assay [2] it was 5.60; in assay [3], 7.93; in assay [4], 7.89.
For `CC(F)(F)c1cc(NC(=O)Nc2ccc(Oc3ccnc(NC(=O)C4CC4)c3)c(F)c2)ccc1Cl` [Exe. 182] the same measures were 7.77, 6.12, 7.83 and 7.49.
For `CS(=O)(=O)c1cc(NC(=O)Nc2ccc(Oc3ccnc(NC(=O)C4CC4)c3)nc2)cc(C(F)(F)F)c1` [Exe. 130], in that order: 6.14, 5.30, 8.34 and 7.53.
As to `Cc1cc(NC(=O)Nc2cccc(C(F)(F)F)c2)ccc1Oc1ccnc(NC(=O)C2CC2)c1` [Exe. 231], the pIC50 in assay [1] is 8.15; in assay [2] it was 6.51; in assay [3] it was 7.94; in assay [4], 7.90.
For `CC(F)(F)c1ccnc(NC(=O)Nc2ccc(Oc3ccnc(NC(=O)C4CC4)c3)cc2)c1` [Exe. 147], in that order: 7.62, 5.94, 7.95 and 7.82.
Turning to `CC(F)(F)c1cc(NC(=O)Nc2ccc(Oc3ccnc(NC(=O)C4CC4)c3)cc2)ccc1Cl` [Exe. 149], the pIC50 in assay [1] is 7.60; in assay [2], 6.10; in assay [3], 7.60; in assay [4] it was 7.42.
Consider `O=C(Nc1ccc(OC(F)(F)F)cc1)Nc1ccc(Oc2ccnc(NC(=O)C3CC3)c2)c(F)c1` [Exe. 178], for which the pIC50 was 6.80 in assay [1], 5.31 in assay [2], 8.28 in assay [3] and 7.46 in assay [4].
`CC(F)(F)c1cc(F)cc(NC(=O)Nc2ccc(Oc3ccnc(NC(=O)C4CC4)c3)cc2F)c1` [Exe. 035]: the pIC50 was 8.03 in assay [1], 6.59 in assay [2], 8.11 in assay [3] and 8.05 in assay [4].
`CC1(C(=O)Nc2cc(Oc3ccc(NC(=O)Nc4ccc(Cl)c(C(F)(F)F)c4)cc3F)ccn2)CC1` [Exe. 028]: the pIC50 in assay [1] was 6.41; in assay [2] it was 5.60; in assay [3], 7.90; in assay [4] it was 7.68.
`Cc1cc(Oc2ccnc(NC(=O)C3CC3)c2)ccc1NC(=O)Nc1cc(OC(F)(F)F)ccc1F` [Exe. 195]: the pIC50 in assay [1] was 8.00; in assay [2] it was 6.10; in assay [3], 8.21; in assay [4], 7.89.
For the compound `CN1CCC(c2cc(NC(=O)Nc3ccc(Oc4ccnc(NC(=O)C5CC5)c4)cc3)cc(C(F)(F)F)c2)CC1` [Exe. 143], the pIC50 in assay [1] was 7.87; in assay [2], 6.05; in assay [3], 8.02; in assay [4], 8.26.
For `CC(C)Nc1cc(NC(=O)Nc2ccc(Oc3ccnc(NC(=O)C4CC4)c3)c(F)c2)cc(C(F)(F)F)c1` [Exe. 187], the pIC50 is 7.20 in assay [1], 6.20 in assay [2], 8.17 in assay [3] and 7.46 in assay [4].
For `Cc1ccc(Oc2ccnc(NC(=O)C3CC3)c2)cc1NC(=O)Nc1cc(C(F)(F)F)ccc1F` [Exe. 225] the same measures were 7.92, 5.24, 7.97 and 7.96.
Take `O=C(Nc1ccc(Oc2ccnc(NC(=O)C3CC3)c2)cc1F)Nc1cc(C(F)(F)F)ccc1F` [Exe. 209]: the pIC50 is 8.23 in assay [1], 7.29 in assay [2], 8.08 in assay [3] and 8.05 in assay [4].
On to `O=C(Nc1cc(N2CCOCC2)cc(C(F)(F)F)c1)Nc1ccc(Oc2ccnc(NC(=O)C3CC3)c2)c(F)c1` [Exe. 189], for which the pIC50 in assay [1] was 7.71; in assay [2] it was 6.59; in assay [3], 7.97; in assay [4] it was 7.53.
For the compound `O=C(Nc1ccc(Cl)c(C(F)(F)F)c1)Nc1ccc(Oc2ccnc(NC(=O)C3CC3)c2)cn1` [Exe. 021], the pIC50 was 7.99 in assay [1], 6.22 in assay [2], 8.12 in assay [3] and 7.61 in assay [4].
For `CN(C)C1CCN(c2cc(NC(=O)Nc3ccc(Oc4ccnc(NC(=O)C5CC5)c4)c(F)c3)cc(C(F)(F)F)c2)C1` (stereo not shown) [Exe. 048], in that order: 7.60, 6.63, 8.14 and 7.96.
For the compound `CC(F)(F)c1cc(NC(=O)Nc2ccc(Oc3cc(NC(=O)C4CC4)ncn3)c(F)c2)ccc1Cl` [Exe. 105], the pIC50 in assay [1] was 7.07; in assay [2] it was 5.72; in assay [3], 7.95; in assay [4], 6.82.
On to `O=C(Nc1cnc(Oc2ccnc(NC(=O)C3CC3)c2)c(Cl)c1)Nc1ccc(Cl)c(C(F)(F)F)c1` [Exe. 019], for which the pIC50 in assay [1] was 6.76; in assay [2] it was 6.08; in assay [3], 7.65; in assay [4], 7.74.
For `Cc1cc(NC(=O)Nc2cc(C(F)(F)F)ccc2F)cnc1Oc1ccnc(NC(=O)C2CC2)c1` [Exe. 124], the pIC50 in assay [1] is 7.71; in assay [2] it was 6.80; in assay [3] it was 7.86; in assay [4] it was 7.98.
For `Cc1cc(Oc2ccnc(NC(=O)C3CC3)c2)ccc1NC(=O)Nc1cccc(C(F)(F)F)c1` [Exe. 193], the pIC50 is 8.13 in assay [1], 5.64 in assay [2], 7.96 in assay [3] and 8.17 in assay [4].
Turning to `CN1CCC(Nc2cc(NC(=O)Nc3ccc(Oc4ccnc(NC(=O)C5CC5)c4)nc3)cc(C(F)(F)F)c2)CC1` [Exe. 131], the pIC50 in assay [1] was less than 6.00; in assay [2] it was 4.98; in assay [3], 8.21; in assay [4] it was 7.90.
Regarding `O=C(Nc1ccc(Oc2ccnc(NC(=O)C3CC3)c2)c(F)c1)Nc1ccc(Cl)c(OC(F)(F)F)c1` [Exe. 063], the pIC50 in assay [1] was 7.54; in assay [2], 5.63; in assay [3] it was 8.26; in assay [4], 7.83.
For the compound `Cc1cc(Oc2cc(NC(=O)C3CC3)ncn2)ccc1NC(=O)Nc1ccc(Cl)c(C(C)(F)F)c1` [Exe. 085], the pIC50 was 7.71 in assay [1], 4.96 in assay [2], 7.97 in assay [3] and 7.35 in assay [4].
With `O=C(Nc1ccc(Oc2ccnc(NC(=O)C3CC3)c2)c(F)c1)Nc1ccc(F)c(C(F)(F)F)c1` [Exe. 153], the pIC50 in assay [1] was 7.64; in assay [2] it was 6.13; in assay [3], 7.82; in assay [4] it was 7.49.
As to `Cc1cc(NC(=O)Nc2cccc(OC(F)(F)F)c2)ccc1Oc1ccnc(NC(=O)C2CC2)c1` [Exe. 232], the pIC50 was 7.96 in assay [1], 6.38 in assay [2], 7.96 in assay [3] and 7.85 in assay [4].
On to `Cc1cc(NC(=O)Nc2ccc(Cl)c(C(F)(F)F)c2)ccc1Oc1ccnc(NC(=O)C2CC2)c1` [Exe. 031], for which the pIC50 in assay [1] was 7.47; in assay [2], 5.89; in assay [3], 7.84; in assay [4], 7.60.
Regarding `O=C(Nc1cc(-c2cccnc2)cc(C(F)(F)F)c1)Nc1ccc(Oc2ccnc(NC(=O)C3CC3)c2)c(F)c1` [Exe. 186], the pIC50 in assay [1] is 7.27; in assay [2] it was 6.19; in assay [3], 8.30; in assay [4], 7.56.
Take `O=C(Nc1ccc(Oc2ccnc(NC(=O)C3CC3)c2)c(F)c1)Nc1cc(C(F)(F)F)ccc1F` [Exe. 156]: the pIC50 is 7.42 in assay [1], 7.28 in assay [2], 8.08 in assay [3] and 7.43 in assay [4].
Consider `O=C(Nc1ccc(Oc2ccnc(NC(=O)C3CC3)c2)nc1)Nc1cc(N2CCS(=O)(=O)CC2)cc(C(F)(F)F)c1` [Exe. 132], for which the pIC50 in assay [1] is 6.47; in assay [2], 5.23; in assay [3], 8.00; in assay [4] it was 7.41.
For the compound `CS(=O)(=O)c1cc(NC(=O)Nc2ccc(Oc3ccnc(NC(=O)C4CC4)c3)cn2)cc(C(F)(F)F)c1` [Exe. 136], the pIC50 in assay [1] is 7.34; in assay [2], 6.33; in assay [3] it was 8.18; in assay [4] it was 7.54.

For the origin of these results see patent US9359338B2, “Cyclopropanecarboxamido-substitute aromatic compounds as anti-tumor agents” (Crown Bioscience Inc. (Taiwan), priority 2012, dated 2016).
